{"source": "patent US6391303B1", "about": "“Methods and compositions for inducing oral tolerance in mammals” (Emisphere Technologies, Inc., priority 1996, dated 2002)", "molecules": {"B1": {"name": "MBP: Myelin Basic Protein, encephalitogenic antigen fed orally alone as comparison in the EAE model (protein, UniProt P02686 1-304, looked up)", "Myelin basic protein": "MGNHAGKRELNAEKASTNSETNRGESEKKRNLGELSRTTSEDNEVFGEADANQNNGTSSQDTAVTDSKRTADPKNAWQDAHPADPGSRPHLIRLFSRDAPGREDNTFKDRPSESDELQTIQEDSAATSESLDVMASQKRPSQRHGSKYLATASTMDHARHGFLPRHRDTGILDSIGRFFGGDRGAPKRGSGKDSHHPARTAHYGSLPQKSHGRTQDENPVVHFFKNIVTPRTPPPSQGKGRGLSLSRFSWGAEGQRPGFGYGGRASDYKSAHKGFKGVDAQGTLSKIFKLGGRDSRSGSPMARR"}}, "key": {"[1]": {"tested_on": "Experimental Autoimmune Encephalomyelitis (EAE)", "conditions": "for mean day of onset of paralysis: single oral dose 1.0 mg MBP alone or with delivery agent, day after challenge; for clinical disease (Mean Clinical Score) of EAE: single oral dose 1.0 mg MBP with delivery agent, footpad challenge 0.05 mg MBP/CFA, scale 0 to 5", "description": "Two days after the (last) oral dose, all groups were challenged in the footpad with 0.05 mg of MBP emulsified with Complete Freund's Adjuvant containing Mycobacterium tuberculosis H37Ra, 4 mg/ml. Clinical signs of disease were observed starting on Day 11 after the challenge and rated on a scale of 0 (no disease) to 5 (death)."}, "[2]": {"tested_on": "DTH response to ovalbumin", "assay": "DTH footpad thickness assay in mice fed ovalbumin with delivery agent", "format": "in vivo, BALB/c mice", "conditions": "single oral dose 1.0 mg ovalbumin with or without 600 mg/kg delivery agent; SC challenge ovalbumin/CFA week 3; versus unfed", "procedure": "A stock solution of ovalbumin was prepared by dissolving Ovalbumin, 10 mg/ml in 10 mM phosphate buffer (pH 7.4). This solution was diluted 2-fold and used to provide 1.0 mg in a volume of 0.2 ml. Five BALB/c mice were administered a single oral dose of 1.0 mg ovalbumin per mouse with 600 mg/kg of E702 delivery agent.\nChallenge was achieved by subcutaneous (SC) injection of 0.1 mg ovalbumin with 50% Complete Freund's Adjuvant (CFA) at week 3. DTH assay was performed as described in Examples 1 and 8. Assay data for Example 10 are found in FIG. 9."}, "[3]": {"tested_on": "anti-ovalbumin IgG antibodies", "assay": "ELISA for serum anti-ovalbumin IgG in mice fed ovalbumin with delivery agent and challenged with ovalbumin in CFA", "format": "in vivo, BALB/c mice", "conditions": "for serum anti-ovalbumin IgG titer at week 4: single oral dose 25 mg ovalbumin with or without 600 mg/kg delivery agent, SC challenge with ovalbumin/CFA week 1, versus unfed; for serum anti-ovalbumin IgG titer at week 12: two oral doses 1 mg ovalbumin (weeks 0 and 4) with or without 600 mg/kg delivery agent, IM challenge with ovalbumin/CFA week 9", "procedure": "A stock solution was prepared by dissolving Ovalbumin, 10 mg/ml, in 10 mM phosphate buffer (pH 7.4). This solution was diluted with buffer to provide 1.0 mg in a volume of 0.2 ml. Ten BALB/c female mice were administered two oral doses of 1 mg ovalbumin per mouse with 600 mg/kg of E94 delivery agent at weeks 0 and 4.\nSystemic challenge was achieved by intramuscular (IM) injection of 2 mg/ml ovalbumin with 50% Complete Freund's Adjuvant (CFA) at week 9. Serum samples were collected at week 12 and assayed for anti-ovalbumin total IgG isotypes as described in Example 4 utilizing ovalbumin antigen instead of HA antigen. Assay data for Example 5 are found in FIG. 5.\nA stock solution of ovalbumin was prepared by dissolving Ovalbumin, 125 mg/ml, in 10 mM phosphate buffer (pH 7.4). This solution was used to provide 25 mg in a volume of 0.2 ml. Five BALB/c mice were administered a single oral dose of 25 mg ovalbumin per mouse with 600 mg/kg of E94 delivery agent.\nChallenge was achieved by subcutaneous (SC) injection of 0.1 mg ovalbumin with 50% Complete Freund's Adjuvant (CFA) at week 1. Serum samples were collected at week 4 and assayed for anti-ovalbumin total IgG isotypes as described in Example 5. Assay data for Example 6 are found in FIG. 6."}, "DTH response to SRBC": {"tested_on": "DTH response to SRBC", "assay": "Delayed Type Hypersensitivity (DTH) footpad thickness test in mice fed SRBC with delivery agent", "format": "in vivo, BALB/c mice", "conditions": "single oral dose 2.5×10^9 SRBC + delivery agent 600 mg/Kg; versus unfed control and SRBC alone", "procedure": "(§1) Five female BALB/c mice were fed a single dose suspension of 2.5×10^9 sheep red blood cells (SRBC)+E94 (600 mg/Kg) in Phosphate Buffered Saline (PBS), 0.1 M phosphate and 0.15 M sodium chloride, pH 7.2. Seven days after completion of oral dosing, mice were primed by footpad injection of 1×10^7 SRBC. They were bled on day 14. On day 21 the mice were tested in a Delayed Type Hypersensitivity (DTH) test through challenge by injection in the footpad not previously used in priming with 1×10^8 SRBC. Footpad thickness was measured before and 24 hours after challenge using a Vernier caliper. On day 28 they were bled again. Sera were placed into Eppendorf tubes and assayed for anti-SRBC IgM (days 14 and 28) and anti-SRBC IgG (day 28) by the direct and indirect hemagglutination assays, respectively. (See assay description below.) Prior to assaying, the samples were heat inactivated at 56/C. for 60 minutes. Assay data for Example 1 are found in FIG. 2.\nFive female BALB/c mice were fed a single dose suspension of 2.5×10^9 sheep red blood cells (SRBC)+[…] (600 mg/Kg) as described in Example 7. Seven days after completion of oral dosing, mice were primed by footpad injection of 1×10^7 SRBC. On day 14. footpad thickness was measured according to the Delayed Type Hypersensitivity (DTH) method outlined in Example 1. The DTH data for Example 8 are found in FIG. 8. […]"}, "[4]": {"tested_on": "anti-SRBC serum IgG antibodies", "assay": "Indirect hemagglutination assay for anti-SRBC serum IgG in mice fed SRBC with delivery agent", "format": "in vivo, BALB/c mice", "procedure": "as §1, with “bled again. […] (See assay” for “bled again. Sera were placed into Eppendorf tubes and assayed for anti-SRBC IgM (days 14 and 28) and anti-SRBC IgG (day 28) by the direct and indirect hemagglutination assays, respectively. (See assay”, “FIG. 2. […]” for “FIG. 2.”\na) In a 15 ml tube, add 11μ of goat anti-mouse IgG (Fcy specific) (2.3 mg/ml) to 5.05 ml PBS (1/460 dilution; approximate amount needed per plate) In a second tube, add 4μ of goat anti-rabbit IgG (Fc specific) to 1.8 ml of PBS approximate amount needed (per plate) […]"}, "[5]": {"tested_on": "anti-SRBC serum IgM antibodies", "assay": "Direct hemagglutination assay for anti-SRBC serum IgM in mice fed SRBC with delivery agent", "format": "in vivo, BALB/c mice", "procedure": "as §1, with “FIG. 2. […]” for “FIG. 2.”\na) Dilute 10μ of sera with 190μ of PBS, pH 7.2 (1/20) b) On a rigid, U-bottom microtiter plate, mark wells across the rows for dilutions of samples 40; 80; 160; . . . […]"}, "[6]": {"tested_on": "anti-influenza antibodies (anti-HA)", "assay": "Hemagglutination inhibition assay of pooled sera of primed mice fed influenza antigen with delivery agent", "conditions": "primed s.c. 5 μg vaccine day 0, oral 60 μg influenza antigen + 750 mg/kg delivery agent day 21", "description": "Sera were collected every two weeks, pooled, and assayed for hemagglutination inhibition.\nHemagglutination Inhibition Assay for Anti-HA Antibodies:\nIf duplicates differ by one dilution, take the average. If they differ by more than one dilution, repeat the assay.\n14) This titer provides the dilution of virus suspension which contains one HA unit per 50 μl. Divide this titer by 8 to get the dilution which will contain 4 HA units per 0.025 μl for the actual Hemagglutination Inhibition (HI) assay.\nRDE* treat all test sera, reference sera and negative control sera on the day before the HI assay will be done.\nUse flexible plates. Mark columns for duplicate dilution series of each test and control serum sample (normal naive serum and positive reference anti-serum). The plate should have 11 columns per row for dilutions plus column 12 for RBC alone.\nTo all wells, except column 1, add 25 μl of PBS.\nTo column 1 wells, add 50 μl of the appropriate RDE-treatment serum (test, positive, or negative control) sample.\nSerially 2× dilute 25 μl of the sera across to column 11, mixing 7× per dilution.\nAdd 25 μl of diluted virus (containing 4 HA units per 25 μl) to all serum dilution wells, columns 1-11. Add 25 μl of PBS to column 21.\nCover plate, mix briefly on shaker, and incubate at r.t. for 30 minutes.7. […]\nRead patterns immediately. […]"}, "[7]": {"conditions": "single oral dose SRBC + delivery agent 600 mg/Kg, versus unfed control (Comparative Example D)"}}}
{"molecule": "COc1cccc(C(=O)Nc2ccc(CCC(=O)O)cc2)c1OC", "note": "[E702, 3-[4-(N-2,3-dimethoxybenzoyl)]aminophenyl propionic acid]", "values": [{"measurement": "mean day of onset of paralysis", "setting": "[1]", "value": 15, "unit": "days"}, {"measurement": "clinical disease (Mean Clinical Score) of EAE", "setting": "[1]", "value": "suppression of clinical disease"}, {"measurement": "DTH response (footpad thickness), week 5", "setting": "[2]", "value": "significantly suppressed response in the DTH"}]}
{"molecule": "Ovalbumin: Ovalbumin antigen fed orally alone, without delivery agent, as comparative example", "values": [{"measurement": "serum anti-ovalbumin IgG titer at week 4", "setting": "[3]", "value": "suppression was not statistically significant"}, {"measurement": "serum anti-ovalbumin IgG titer at week 12", "setting": "[3]", "value": "the same as in mice given the intramuscular dose alone"}, {"measurement": "DTH response (footpad thickness), week 5", "setting": "[2]", "value": "not suppressed"}]}
{"molecule": "O=C(O)CCCc1ccc(NS(=O)(=O)c2ccccc2)cc1", "note": "[E198, 4-[4-(N-benzenesulfonyl)]aminophenyl butyric acid]", "values": [{"measurement": "DTH response (footpad thickness), Day 14", "setting": "DTH response to SRBC", "value": "suppressed the DTH response on Day 14 relative to unfed control (Comparative Example L) significantly more than without delivery agent"}]}
{"molecule": "COc1ccccc1C(=O)Nc1ccc(CCC(=O)O)cc1", "note": "[E594, 3-[4-(N-2 methoxybenzoyl)]aminophenyl propionic acid]", "values": [{"measurement": "anti-SRBC IgG titer, Day 14", "setting": "[4]; single oral dose 2.5×10^9 SRBC + delivery agent 600 mg/Kg, versus unfed control and SRBC alone", "value": "suppressed IgG on Day 14 relative to unfed control (Comparative Example K) significantly more than without delivery agent"}, {"measurement": "DTH response (footpad thickness), Day 14", "setting": "DTH response to SRBC", "value": "suppressed the DTH response on Day 14 relative to unfed control (Comparative Example L) significantly more than without delivery agent"}]}
{"molecule": "O=C(N[C@@H](Cc1ccccc1)C(=O)O)c1ccccc1O", "note": "[E94, N-salicyloyl phenylalanine]", "values": [{"measurement": "mean day of onset of paralysis", "setting": "[1]", "value": 15, "unit": "days"}, {"measurement": "clinical disease (Mean Clinical Score) of EAE", "setting": "[1]", "value": "suppression of clinical disease"}, {"measurement": "anti-SRBC IgG titer, Day 28", "setting": "[4]; [7]", "value": "lower than the Comparative Example D control (90% significance)"}, {"measurement": "serum anti-ovalbumin IgG titer at week 4", "setting": "[3]", "value": "significantly suppressed serum anti-Ova IgG titers"}, {"measurement": "serum anti-ovalbumin IgG titer at week 12", "setting": "[3]", "value": "significantly suppressed compared to both unfed and antigen-alone fed"}, {"measurement": "anti-SRBC IgM titer, Day 14", "setting": "[5]; single oral dose 2.5×10^9 SRBC + delivery agent 600 mg/Kg, primed day 7, versus unfed control and SRBC alone", "value": "suppressed IgM on Day 14 relative to unfed control (Comparative Example D) significantly more than without delivery agent"}, {"measurement": "anti-SRBC IgM titer, Day 28", "setting": "[5]; [7]", "value": "still lower than that for the Comparative Example D control (90% significance)"}, {"measurement": "suppression of anti-influenza antibody production (HI titer) relative to control fed only influenza antigen", "setting": "[6]", "value": "more than 2 fold"}]}
{"molecule": "B1", "values": [{"measurement": "mean day of onset of paralysis", "setting": "[1]", "value": 13, "unit": "days"}]}
